Assay results published in patent publication US9045393B2, “Derivatives of 3.5-seco-4-norcholestane and use thereof” (TROPHOS, priority 2004, dated 2015).

Experiments:
[1] = system: rat motoneurons; test: in vitro model of trophic deprivation of rat motoneurons (survival, calcein fluorescence); assay type: cell-based; conditions: 3 days in basal medium, compared with medium supplemented with neurotrophic factors, ratio greater than 0 = positive effect
From the text: Useful reference may be made to the WO 0142784 Patent Application of the applicant on the cultivation of spinal cord motoneurons.
The spinal cord of rat E14 embryos is dissected and the ventral portion is dissociated by trituration after trypsination. The motoneurons are separated from the other spinal cells by a known method (Camu et al., 1993, Purification of spinal motoneurons from chicken and rat embryos by immunopanning. in “Immunoselection Strategies for Neural cell culture”, Neuroprotocols: A companion to Methods in Neurosciences 2, 191-199; Henderson et al., 1993. Neutrophins promote motor neuron survival and are present in embryonic limb bud. Nature 363 (6426): 266-70). The cells are centrifuged on a density gradient. Motoneurons are enriched in the fraction of large cells (the less dense cells). The cells of this fraction are incubated with an anti-p75 antibody, a surface antigen present on motoneurons. Secondary antibodies coupled with magnetic beads are added and the mixture of cells is passed through a column in a magnet (Arce et al., 1999). Only the motoneurons are retained: their purity is of the order of 90%.
The motoneurons are sown with low density in culture wells on a substrate of polyornithine-laminin in a neurobasal medium supplemented according to Raoul et al., 1999, Programmed cell death of embryonic motoneurons triggered through the Fas death receptor. J. Cell. Biol. 147(5): 1049-62. Negative controls (absence of trophic factors) and positive controls (in the presence of BDNF (Brain-Derived Neurotrophic Factor) at 1 ng/mL, GDNF (Glial-Derived Neurotrophic Factor) at 1 ng/mL, and CNTF (Ciliary Neurotrophic Factor) at 10 ng/mL, marketed by the US company PEPROTECH, Inc. and the Sigma-Aldrich company), are included in each series.
The compounds to be tested are added 60 minutes after sowing and the cultures are maintained at 37° C. under 5% CO2 for 3 days.
The motoneurons have a spontaneous tendency of dying in the absence of neurotrophic factors (Pettmann and Henderson, 1998, Neuronal cell death. Neuron 20(4): 633-47). After 3 days, survival is evaluated by measuring fluorescence after incubating the cells in the presence of calcein which becomes fluorescent in living cells.
After 3 days in culture at 37° C., under 5% CO2 and in saturating humidity, up to 50% of the initially sown motoneurons survive in the medium supplemented with neurotrophic factors, while less than 15% of the motoneurons survive in a basal medium alone.
The activity of the compounds to be tested was evaluated by their capability of preventing death of motoneurons when they are added to the neurobasal medium as compared with survival of motoneurons in a medium supplemented with neurotrophic factors.
This survival rate is expressed by a number, the ratio. If the ratio is greater than 0, the effect of the compounds is positive on the survival of the motoneurons.

[2] = system: motoneurons of the facial nucleus; test: axotomy of the facial nerve in newborn rats, count of motoneurons of the facial nucleus; assay type: in vivo, rat; conditions: axotomized newborn rats, treated orally, seven days after section
[3] = Toxicological study in mice; assay type: in vivo; conditions: intra-peritoneal route, 30 mg/kg/day, daily administration up to 14 days

Compound	Ratio (survival rate of the motoneurons) ([1]; concentration 3 μM)	other results
CNCCCC1(C)C(=NO)CCC2C1CCC1(C)C(C(C)CCCC(C)C)CCC21 (stereo not shown) [Compound 5, 3,5-seco-4-nor-cholestan-5-one oxime-3-methyl-amine]	0.3	–
CC(C)CCC[C@@H](C)[C@H]1CC[C@H]2[C@@H]3CC/C(=N\O)[C@](C)(CCCO)[C@H]3CC[C@]12C [Compound 11, 3,5-seco-4-nor-cholestan-5-one oxime-3-ol]	0.8	increase of survival of the motoneurons of the facial nucleus ([2]; dose between 3 and 30 mg/kg, as compared with non-sectioned nerve): up to 40%; toxicity [3]: did not show any significant toxicity
CC(C)CCCC(C)C1CCC2C3CCC(=O)C(C)(CCC(=O)O)C3CCC12C (stereo not shown) [Compound 14, 3,5-seco-4-nor-cholestan-5-one-3-oic acid]	–	Ratio (survival rate of the motoneurons) ([1]; concentration 10 μM): 0.4
CC(C)CCCC(C)C1CCC2C3CCC(O)C(C)(CCCO)C3CCC12C (stereo not shown) [Compound 9, 3,5-seco-4-nor-cholestane-3,5-diol]	0.4	–
CC(C)CCCC(C)C1CCC2C3CCC(=O)C(C)(CCCO)C3CCC12C (stereo not shown) [Compound 10, 3,5-seco-4-nor-cholestan-5-one-3-ol]	0.6	–
CC(C)CCCC(C)C1CCC2C3CCC(=NOCC(=O)O)C(C)(CCCO)C3CCC12C (stereo not shown) [Compound 7, 3,5-seco-4-nor-cholestan-5-one carboxymethyl-oxime-3-ol]	0.4	–
CON=C1CC[C@H]2[C@@H]3CC[C@H]([C@H](C)CCCC(C)C)[C@@]3(C)CC[C@@H]2[C@@]1(C)CCCO [Compound 6, 3,5-seco-4-nor-cholestan-5-one methyloxime-3-ol]	0.4	–
CC(C)CCCC(C)C1CCC2C3CCC(=NO)C(C)(CCC(C)(C)O)C3CCC12C (stereo not shown) [Compound 3, 3,5-seco-4-nor-cholestan-5-one oxime-3-dimethyl alcohol]	0.7	increase of survival of the motoneurons of the facial nucleus ([2]; dose of 10 mg/kg): up to 25%; toxicity [3]: did not show any significant toxicity
CNC(=O)CCC1(C)C(=NO)CCC2C1CCC1(C)C(C(C)CCCC(C)C)CCC21 (stereo not shown) [Compound 1, 3,5-seco-4-nor-cholestan-5-one oxime-3-methyl-amide]	0.4	–
CC(C)CCCC(C)C1CCC2C3CCC(=O)C(C)(CCC(C)(C)O)C3CCC12C (stereo not shown) [Compound 2, 3,5-seco-4-nor-cholestan-5-one-3-dimethyl alcohol]	0.5	–
3,5-seco-4-nor-cholestan-5-one oxime-3-methyl alcohol [Compound 4]	0.5	increase of survival of the motoneurons of the facial nucleus ([2]; dose of 30 mg/kg): up to 30%
CC(C)CCCC(C)C1CCC2C3CCC(=NO)C(C)(CCC=NO)C3CCC12C (stereo not shown) [Compound 12, 3,5-seco-4-nor-cholestan-5-one oxime-3-one oxime]	0.7	–
3,5-seco-4-nor-cholestan-5-one-3-methyl ketone [Compound 13]	0.7	–
CC(C)CCCC(C)C1CCC2C3CCC(=NO)C(C)(CCC(=O)O)C3CCC12C (stereo not shown) [Compound 8, 3,5-seco-4-nor-cholestan-5-one oxime-3-oic acid]	0.4	–
